Data set [1] is described as follows: Maximum (initial) soluble concentration in Aromatic 200 solvent by UV/vis. The class given is physicochemical. The conditions noted are these: for Measured Initial Concentration: Aromatic 200 (ATOSOL 200ND), targeted 10 wt% solution, filtered, diluted in xylenes, UV/vis against 0.5 and 1.7 wt% calibration.
Protocol: For each Example, a calibration line is generated by preparing 0.5 and 1.7 wt% solutions of each Example using a batch of Aromatic 200 supplied from TOTAL, identified as ATOSOL 200ND, and measuring the UV/vis absorbance at these known concentrations. The solutions are heated to 60° C. with stirring overnight and allowed to cool to ambient temperature for at least several hours, preferably overnight. For the 0.5 and 1.7 wt% solutions for each marker, UV/vis measurements are prepared by diluting an aliquot of each solution (exact weight recorded) into a known amount of xylenes to target an absorbance value below approximately 2.5. […] For other Examples, several drops of the targeted 10 wt% solution are filtered and a known amount of the filtrate is diluted with a known amount of xylenes to target an absorbance value below approximately 2.5. The initial concentration is determined by measuring the absorbance value of a known concentration of the filtered and diluted aliquot taken from the targeted 10 wt% solution. The expected UV/vis absorbance value of the aliquot is calculated based on the calibration standards, and this value is compared against the actual measured absorbance value. Measured values below the expected value indicate the marker is not fully soluble at this 10 wt% concentration.
A short description of data set [2]: Storage stability in Aromatic 200 solvent at -10° C. In kind it is physicochemical. The conditions noted are these: -10° C. freezer. As to the method: Storage stability experiments of Examples 1-3 as well as Comparative Examples 4 and 5 as well as Comparative Example 6 (a 50:50 molar physical blend of Comparative Examples 4 and 5) are conducted as follows. For each Example, a calibration line is generated by preparing 0.5 and 1.7 wt% solutions of each Example using a batch of Aromatic 200 supplied from TOTAL, identified as ATOSOL 200ND, and measuring the UV/vis absorbance at these known concentrations. The solutions are heated to 60° C. with stirring overnight and allowed to cool to ambient temperature for at least several hours, preferably overnight. For the 0.5 and 1.7 wt% solutions for each marker, UV/vis measurements are prepared by diluting an aliquot of each solution (exact weight recorded) into a known amount of xylenes to target an absorbance value below approximately 2.5. […] For other Examples, several drops of the targeted 10 wt% solution are filtered and a known amount of the filtrate is diluted with a known amount of xylenes to target an absorbance value below approximately 2.5. The initial concentration is determined by measuring the absorbance value of a known concentration of the filtered and diluted aliquot taken from the targeted 10 wt% solution. The expected UV/vis absorbance value of the aliquot is calculated based on the calibration standards, and this value is compared against the actual measured absorbance value. […]

For `CCCCc1ccc(Nc2ccc(Nc3ccc(CCCC)cc3)c3c2C(=O)c2c(Nc4ccc(CCCC)cc4)ccc(Nc4ccc(CCCC)cc4)c2C3=O)cc1` [Comparative Example 4, 1,4,5,8-tetrakis(4-(n-butyl)phenylamino)anthracene-9,10-dione], in data set [1], the “Measured Initial Concentration” value is 7.0 wt%. Besides, the “Storage stability: Concentration after storage at -10° C., 4 days” value in data set [2] is on record as 4.2 wt%.

Consider `Cc1ccc(Nc2ccc(Nc3ccc(C)cc3)c3c2C(=O)c2c(Nc4ccc(C)cc4)ccc(Nc4ccc(C)cc4)c2C3=O)cc1` [Comparative Example 5, 1,4,5,8-tetrakis(4-methylaniline)anthracene-9,10-dione], for which the “Solubility of calibration solution in Aromatic 200 (solids observed)” value in data set [1] (1.7 wt% solution in Aromatic 200, heated to 60° C. overnight, cooled to ambient) is recorded as “solids are observed at 1.7 wt%”. In addition, the “Measured Initial Concentration” value in data set [1] is “Solids observed at 1.7%, no measurement”.

The values above are taken from patent US20230250292A1, “AROMATIC HYDROCARBON-SOLUBLE ANTHRAQUINONE” (Dow Global Technologies LLC, priority 2020, published 2023).
